Measurements reported in US20040053966A1, “Chemical derivatives and their application as antitelomerase agent” (Aventis Pharms S.A., priority 1999, published 2004).
Where a name gives a salt, the structure may show the parent alone. Read-outs that look alike come from different tables or passages of the source.

Columns and labels:
[1] = test system: human telomerase (HL60 cell extract); experiment: Antitelomerase activity, TRAP (extension of oligonucleotide TS and PCR amplification); format: biochemical; conditions: telomerase extract from HL60 cells
[2] = test system: G-quadruplex of oligonucleotide GGGTTAGGGTTAGGGTTAGGG (3.5 repeats of the human telomeric motif); experiment: G-quadruplex stabilizing activity, fluorescence Tm (FAM+DABCYL oligonucleotide); format: binding; conditions: test product 1 μM, oligonucleotide 0.2 μM, 0.1 M LiCl, 10 mM cacodylate pH 7.6; reference without product 44° C.
From the text: The G-quadruplex stabilizing activity may be determined by a method using the formation of a complex with fluorescein of which the experimental protocol is described below. Oligonucleotides […] The oligonucleotide FAM+DABCYL carries the catalogue reference OL-0371-0802. It has the sequence: […] The fluorescein is attached to the 5' end, the DABCYL to the 3' end, by the chemical arms described by Eurogentec. The concentration of the samples is checked by spectrophotometry, recording the absorbance spectrum between 220 and 700 nm and using the molar extinction coefficient provided by the supplier. Buffers All the experiments were carried out in a 10 mM sodium cacodylate buffer pH 7.6 containing 0.1 M lithium chloride (or sodium chloride). The absence of fluorescent contamination in the buffer was checked beforehand. The fluorescent oligonucleotide is added at the final concentration of 0.2 μM. Study of Fluorescence All the measurements of fluorescence were carried out on a Spex Fluorolog DMlB apparatus, using an excitation line width of 1.8 nm and an emission line width of 4.5 nm. The samples are placed in a microquartz cuvette of 0.2×1 cm. The temperature of the sample is controlled by an external water bath. The oligonucleotide alone was analysed at 20, 30, 40, 50, 60, 70 and 80° C. The emission spectra are recorded using an excitation wavelength of 470 nm. The excitation spectra are recorded using either 515 nm or 588 nm as emission wavelength. The spectra are corrected for the response of the instrument by reference curves. A high extinction (80-90%) of the fluorescence of fluorescein at room temperature is observed, in agreement with an intramolecular folding of the oligonucleotide at 20° C. in the form of a G-quadruplex, which induces juxtaposition of its [NT] ends which are respectively linked to fluorescein and to DABCYL. This juxtaposition causes an already-described phenomenon of extinction of fluorescence which is used for “molecular beacons”. Fluorescence Tm: […] The samples are then allowed to incubate for at least 1 hour at 20° C. before each measurement. The use of longer incubation times (up to 24 hours) has no influence on the result obtained. Each experiment allows the measurement of only one sample. The latter is first incubated at an initial temperature of 20° C., heated to 80° C. over 38 minutes, left for 5 minutes at 80° C. and then cooled to 20° C. over 62 minutes. During this time, the fluorescence is measured simultaneously at two emission wavelengths (515 nm and 588 nm) using 470 nm as excitation wavelength. A measurement is carried out every 30 seconds. The temperature of the water bath is recorded in parallel, and the fluorescence profile as a function of the temperature is reconstituted from these values. The fluorescence profiles are then normalized between 20° C. and 80° C., and the temperature for which the intensity of emission at 515 nm is the mean of those at high and low temperature is called Tm. Under these conditions, the Tm of the reference sample without addition of product is 44° C. in a lithium chloride buffer. This temperature is increased to more than 55° C. in a sodium chloride buffer. The addition of a G-quadruplex-stabilizing compound induces an increase in the Tm. This increase is judged to be significant if it is greater than […].

A549 cells = experiment: Cytotoxic activity on human tumour line A549 (neutral red); format: cell-based; conditions: 96 hours incubation, read-out: Cytotox. A549 IC50
Protocol: The Cytotoxic Biological Activity on Human Tumour Lines is Determined According to the Following Experimental Protocol:
The cells at the exponential growth phase are trypsinized, washed in 1× PBS and are inoculated in 96-well microplates (Costar) in an amount of 4×10^4 cells/ml for A549 and of 1.5×10^4 cells/ml (0.2 ml/well) and then incubated for 96 hours in the presence of variable concentrations of product to be studied (10, 1, 0.1 and 0.01 μg/ml, each point in quadruplicate). 16 hours before the end of the incubation, 0.02% final of neutral red is added to each well. At the end of the incubation, the cells are washed with 1× PBS and lysed with 1% sodium lauryl sulphate. The cellular incorporation of the dye, which reflects cellular growth, is evaluated by spectrophotometry at a wavelength of 540 nm for each sample with the aid of a Dynatech MR5000 reading apparatus.
(compound value−blank value/cell control value−blank value)×100.

## Cc1cc(N)c2cc(Nc3nc(N)nc(Nc4ccc5c(c4)c(N)cc(C)[n+]5C)n3)ccc2[n+]1C [Example 1, 2-amino-bis-4,6-[(1′-methyl-4′-amino-6′-quinaldinio)amino]triazine dichloride]
[1]
  IC50: 0.25 µM

## CC[n+]1c(C)cc(N)c2cc(Nc3nc(N)nc(Nc4ccc5c(c4)c(N)cc(C)[n+]5CC)n3)ccc21 [Example 2, 2-amino-bis-4,6-[(1′-ethyl-4′-amino-6′-quinaldinio)amino]triazine dichloride]
[1]
  IC50: 0.056 µM
[2]
  FLUORESCENCE Tm: 48° ° C.
A549 cells; Homo sapiens, A549, 96 h
  IC50: 4.7 µM

## Cc1cc(N)c2cc(Nc3nc(Nc4ccc5c(c4)c(N)cc(C)[n+]5C)nc(N(C)C)n3)ccc2[n+]1C [Example 3, 2-dimethylamino-bis-4,6-[(1′-methyl-4′-amino-6′-quinaldinio)amino]triazine dichloride]
[1]
  IC50: 0.22 µM
[2]
  FLUORESCENCE Tm: 52° ° C.

## CNc1nc(Nc2ccc3nc(C)cc(N)c3c2)nc(Nc2ccc3nc(C)cc(N)c3c2)n1 [Example 4, 2-methylamino-bis-4,6-[(4′-amino-6′-quinaldinyl)amino]triazine trihydrochloride]
[1]
  IC50: 0.51 µM
[2]
  FLUORESCENCE Tm: 48° ° C.
A549 cells; Homo sapiens, A549, 96 h
  IC50: 3.1 µM

## C[n+]1cccc2cc(Nc3nc(N)nc(Nc4ccc5c(ccc[n+]5C)c4)n3)ccc21 [Example 5, 2-amino-bis-4,6-[(1′-methyl-6′-quinolinio)amino]triazine dichloride]
[1]
  IC50: 0.13 µM
[2]
  FLUORESCENCE Tm: 57° ° C.

## CNc1nc(Nc2ccc3nc(C)cc(NC)c3c2)nc(Nc2ccc3nc(C)cc(NC)c3c2)n1 [Example 6, 2-methylamino-bis-4,6-[(4′-methylamino-6′-quinaldinyl)amino]triazine dichloride trihydrochloride]
[1]
  IC50: 0.3 µM
[2]
  FLUORESCENCE Tm: 44° ° C.
A549 cells; Homo sapiens, A549, 96 h
  IC50: 1.9 µM

## C[n+]1c2ccccc2c(N)c2cc(Nc3nc(N)nc(Nc4ccc5c(c4)c(N)c4ccccc4[n+]5C)n3)ccc21 [Example 7, 2-amino-bis-4,6-[(9′-amino-10′-methyl-2′-acridinio)amino]triazine dichloride hydrochloride]
[1]
  IC50: 0.89 µM
[2]
  FLUORESCENCE Tm: 55° ° C.
A549 cells; Homo sapiens, A549, 96 h
  IC50: 4.9 µM

## Cc1cc(N)c2cc(Nc3nc(N)nc(Nc4ccc5nc(C)cc(N)c5c4)n3)ccc2n1 [Example 8, 2-amino-bis-4,6-[(4′-amino-6′-quinaldinyl)amino]triazine trihydrochloride]
[1]
  IC50: 0.051 µM
A549 cells; Homo sapiens, A549, 96 h
  IC50: 9.1 µM

## N=C(N)c1ccc(Nc2nc(N)nc(Nc3ccc(C(=N)N)cc3)n2)cc1 [Example 9, 2-Amino-bis-4,6-(p-amidinoanilino)triazine trihydrochloride]
[1]
  IC50: 0.74 µM
A549 cells; Homo sapiens, A549, 96 h
  IC50: 0.53 µM

## CSc1nc(Nc2ccc3c(c2)c(N)cc(C)[n+]3C)nc(Nc2ccc3c(c2)c(N)cc(C)[n+]3C)n1 [Example 10, 2-methylthio-bis-4,6-[(1′-methyl-4′-amino-6′-quinaldinio)amino]triazine dichloride]
[1]
  IC50: 0.24 µM
A549 cells; Homo sapiens, A549, 96 h
  IC50: 3.6 µM

## Cc1cc(N(C)C)c2cc(Nc3nc(Cl)nc(Nc4ccc5nc(C)cc(N(C)C)c5c4)n3)ccc2n1 [Example 11, 2-chloro-bis-4,6-[(4′-dimethylamino-6′-quinaldinyl)amino]triazine dihydrochloride dihydrate]
[1]
  IC50: 3 µM
[2]
  FLUORESCENCE Tm: 57° ° C.
A549 cells; Homo sapiens, A549, 96 h
  IC50: 5.14 µM

## CSc1nc(Nc2ccc3nc(C)cc(N(C)C)c3c2)nc(Nc2ccc3nc(C)cc(N(C)C)c3c2)n1 [Example 12, 2-methylthio-bis-4,6-[(4′-dimethylamino-6′-quinaldinyl)amino]triazine hydrate]
[1]
  IC50: 0.041 µM
[2]
  FLUORESCENCE Tm: 70° ° C.

## Cc1cc(N)c2cc(NC(=O)Nc3ccc4nc(C)cc(N)c4c3)ccc2n1 [Example 13, N,N′-(4-amino-6-quinaldinyl)urea dihydrochloride]
[1]
  IC50: 0.72 µM

## C[n+]1ccc(NCCCCCNc2cc[n+](C)c3cc(Cl)ccc23)c2ccc(Cl)cc21 [Example 14, N^1,N^5-bis (7-chloro-1-methyl4-quinolinio)pentane-1,5-diamine diiodide]
A549 cells; Homo sapiens, A549, 96 h
  IC50: 6.5 µM

## Cc1cc(N)c2cc(Nc3ccnc(Nc4ccc5nc(C)cc(N)c5c4)n3)ccc2n1.Cl.Cl.Cl.O.O.O.O.O [Example 15, bis-2,4-[(4′-amino-6′-quinaldinyl)amino]pyrimidine trihydrochloride pentahydrate]
[1]
  IC50: 0.49 µM
[2]
  FLUORESCENCE Tm: 53° ° C.
A549 cells
  IC50: 8.7 µM

## Cc1cc(N)c2cc(NC(=N)NC(=N)Nc3ccc4nc(C)cc(N)c4c3)ccc2n1 [Example 16, 1,5-(4′-amino-6′-quinaldinyl)-biguanide trihydrochloride dihydrate]
[2]
  FLUORESCENCE Tm: 52° ° C.
A549 cells; Homo sapiens, A549, 96 h
  IC50: 5.8 µM

## CSc1nc(Nc2ccc3nc(C)cc(N)c3c2)nc(Nc2ccc3nc(C)cc(N)c3c2)n1 [Example 17-1]
[1]
  IC50: 0.049 µM
[2]
  G4 Tm: 57 °C
A549 cells; Homo sapiens, A549, 96 h
  IC50: 1.6 µM

## CSc1nc(Nc2ccc3c(c2)c(=N)cc(C)n3C)nc(Nc2ccc3c(c2)c(=N)cc(C)n3C)n1 [Example 17-2]
[1]
  IC50: 0.95 µM
A549 cells; Homo sapiens, A549, 96 h
  IC50: 6.1 µM

## COc1cc(C)nc2ccc(Nc3nc(Nc4ccc5nc(C)cc(OC)c5c4)nc(SC)n3)cc12 [Example 17-3]
[1]
  IC50: 3.9 µM
A549 cells; Homo sapiens, A549, 96 h
  IC50: 3.2 µM

## CSc1nc(Nc2ccc3nc(C)cc(N)c3c2)nc(N(C)c2ccc3ncccc3c2)n1 [Example 18-1]
[1]
  IC50: 3.5 µM
[2]
  G4 Tm: 47 °C

## COc1cc(C)nc2ccc(Nc3nc(Nc4ccc5nc(C)cc(N)c5c4)nc(SC)n3)cc12 [Example 18-2]
[1]
  IC50: 2.3 µM
[2]
  G4 Tm: 49 °C

## CSc1nc(Nc2ccc3nc(C)cc(N)c3c2)nc(Nc2ccc3nc(C)cc(N(C)C)c3c2)n1 [Example 18-3]
[1]
  IC50: 0.34 µM
[2]
  G4 Tm: 57 °C
A549 cells; Homo sapiens, A549, 96 h
  IC50: 10 µM

## CSc1nc(Nc2ccc3nc(C)cc(C)c3c2)nc(Nc2ccc3nc(C)cc(N)c3c2)n1 [Example 18-4]
[1]
  IC50: 2.2 µM
[2]
  G4 Tm: 50 °C

## CSc1nc(Nc2ccc3ncccc3c2)nc(Nc2ccc3nc(C)cc(N)c3c2)n1 [Example 18-5]
[1]
  IC50: 3.4 µM
[2]
  G4 Tm: 47 °C

## CSc1nc(Nc2ccc(C#N)cc2)nc(Nc2ccc3nc(C)cc(N)c3c2)n1 [Example 18-7]
[1]
  IC50: 3.3 µM
[2]
  G4 Tm: 51 °C
A549 cells; Homo sapiens, A549, 96 h
  IC50: 8 µM

## CSc1nc(Nc2ccc3nc(C)cc(N)c3c2)nc(Nc2ccnc3ccccc23)n1 [Example 18-8]
[1]
  IC50: 3.4 µM
[2]
  G4 Tm: 49 °C

## COc1ccc2nccc(Nc3nc(Nc4ccc5nc(C)cc(N)c5c4)nc(SC)n3)c2c1 [Example 18-9]
[1]
  IC50: 3.4 µM
[2]
  G4 Tm: 51 °C
A549 cells; Homo sapiens, A549, 96 h
  IC50: 9.5 µM

## CSc1nc(Nc2ccc3nc[nH]c3c2)nc(Nc2ccc3nc(C)cc(N)c3c2)n1 [Example 18-10]
[1]
  IC50: 3.3 µM
[2]
  G4 Tm: 49 °C
A549 cells; Homo sapiens, A549, 96 h
  IC50: 10 µM

## CCc1cc(Nc2nc(Nc3ccc4nc(C)cc(N)c4c3)nc(SC)n2)ccn1 [Example 18-12]
[1]
  IC50: 2.8 µM

## CSc1nc(Nc2ccc3nc(C)ccc3c2)nc(Nc2ccc3nc(C)cc(N)c3c2)n1 [Example 18-13]
[1]
  IC50: 3.4 µM

## CCN(CC)c1nc(Nc2ccncc2)nc(Nc2ccc3nc(C)cc(N)c3c2)n1 [Example 19-2]
[1]
  IC50: 2.5 µM
[2]
  G4 Tm: 53 °C
